Experimental data taken from US6806265B2, “Non-nucleoside reverse transcriptase inhibitors” (priority 2002, dated 2004).
Where two headings read alike, the source gives them in different places.

Legend:
[1] = target: T1, HIV-1 RT double mutant K103N/Y181C (Human immunodeficiency virus type 1 group M subtype B, UniProt P03366, K702N/Y780C); assay: biochemical
T1 construct: HIV-1 wild type reverse transcriptase as well as the clinically significant double mutant K103N/Y181C
Experimental: (§1) Utilizing the Reverse Transcriptase (RT) Assay described below, compounds were tested for their ability to inhibit the RNA-dependent DNA polymerase activity of HIV-1 RT. Certain specific compounds described in the Examples and in Tables 1-4, were so tested. The results of this testing appear in Table 5 as ranges of IC50 (nM) and EC50 (nM).
(§2) Reverse Transcriptase (RT) Assays

[2] = target: T2, HIV-1 wild type reverse transcriptase (Human immunodeficiency virus type 1 group M subtype B, UniProt P03366); assay: biochemical; conditions: wild type RT; read-out: IC50 WT RT
T2 construct: HIV-1 wild type reverse transcriptase
Experimental: as §1, §2

HIV-1 wild type = assay: microbe, parasite or virus in culture; type: cell-based
[3] = system: HIV-1 double mutant K103N/Y181C; assay: microbe, parasite or virus in culture; type: cell-based
[4] = Human immunodeficiency virus 1, wild type, read-out: EC50 WT RT
[5] = Human immunodeficiency virus 1, read-out: EC50 K103N/Y181C (nM)
[6] = RT double mutant K103N/Y181C, read-out: IC50 K103N/Y181C
[7] = wild type, read-out: EC50 WT RT
[8] = double mutant K103N/Y181C, read-out: EC50 K103N/Y181C
[9] = Human immunodeficiency virus 1, read-out: EC50 WT RT (nM)

Row | Compound | IC50 [1] [nM] | IC50 [2] [nM] | EC50 (HIV-1 wild type; [4]) [nM] | EC50 [3, 5] [nM] | IC50 [1, 6] [nM] | EC50 (HIV-1 wild type; [7]) [nM] | EC50 [3, 8] [nM] | EC50 (HIV-1 wild type; [9]) [nM]
1 | CCN1c2ncc(CCOc3ccc(-c4cc[n+]([O-])cc4)cc3)cc2C(=O)N(C)c2cccnc21 [Entry 1091, 11-Ethyl-5,11-dihydro-5-methyl-8-{2-[4-(1-oxido-4-pyridinyl)phenoxy]ethyl}-6H-dipyrido[3,2-b:2′,3′-e][1,4]diazepin-6-one] | < 50 | < 50 | < 10 | < 10 | – | – | – | –
2 | CCN1c2ncc(CCOc3ccc(-c4cc(C(=O)O)on4)cc3C)cc2C(=O)N(C)c2cccnc21 [Entry 1041, 3-{4-[2-(11-Ethyl-6,11-dihydro-5-methyl-6-oxo-5H-dipyrido[3,2-b:2′,3′-e][1,4]diazepin-8-yl)ethoxy]-3-methylphenyl}-5-isoxazolecarboxylic acid] | < 50 | < 50 | > 50 | > 50 | – | – | – | –
3 | CCN1c2ncc(CCOc3ccc(C(=O)NCC(CC)(CC)C(=O)O)cc3C)cc2C(=O)N(C)c2cccnc21 [Entry 4014] | < 50 | < 50 | < 10 | 10 to 50 | – | – | – | –
4 | CCN1c2ncc(CCOc3ccc(-c4ccncc4)cc3)cc2C(=O)N(C)c2cccnc21 [Entry 1090, 11-Ethyl-5,11-dihydro-5-methyl-8-{2-[4-(4-pyridinyl)phenoxy]ethyl}-6H-dipyrido[3,2-b:2′,3′-e][1,4]diazepin-6-one] | 50 to 100 | < 50 | < 10 | 10 to 50 | – | – | – | –
5 | Cc1cc(-c2ccc(CC(=O)O)cc2)ccc1OCCc1cnc2c(c1)C(=O)N(C)c1cccnc1N2 [Entry 1059] | – | < 50 | – | – | > 100 | < 10 | > 50 | –
6 | CCN1c2ncc(CCOc3ccc(C(=O)Nc4nc(CC(=O)O)cs4)cc3C)cc2C(=O)N(C)c2cccnc21 [Entry 3007] | < 50 | < 50 | 10 to 50 | > 50 | – | – | – | –
7 | CCN1c2ncc(CCOc3ccc(NC(=O)CCC(=O)O)cc3C)cc2C(=O)N(C)c2cccnc21 [Entry 4006] | 50 to 100 | < 50 | 10 to 50 | > 50 | – | – | – | –
8 | CCN1c2ncc(CCOc3ccc(-c4csc(N)n4)cc3C)cc2C(=O)N(C)c2cccnc21 [Entry 1093, 8-{2-[4-(2-Amino-4-thiazolyl)-2-methylphenoxy]ethyl}-11-ethyl-5,11-dihydro-5-methyl-6H-dipyrido[3,2-b:2′,3′-e][1,4]diazepin-6-one] | < 50 | < 50 | < 10 | < 10 | – | – | – | –
9 | CCN1c2ncc(CCOc3ccc(C(=O)Nc4ccccc4C(=O)O)cc3C)cc2C(=O)N(C)c2cccnc21 [Entry 3011] | > 100 | < 50 | – | > 50 | – | – | – | 10 to 50
10 | CCN1c2ncc(CCOc3ccc(-c4ccc(C(=O)O)o4)cc3C)cc2C(=O)N(C)c2cccnc21 [Entry 1046, 5-{4-[2-(11-Ethyl-6,11-dihydro-5-methyl-6-oxo-5H-dipyrido[3,2-b:2′,3′-e][1,4]diazepin-8-yl)ethoxy]-3-methylphenyl}-2-furanecarboxylic acid] | > 100 | < 50 | < 10 | > 50 | – | – | – | –
11 | CCN1c2ncc(CCOc3ccc(-c4ccccc4)cc3)cc2C(=O)N(C)c2cccnc21 [Entry 1101] | – | < 50 | – | – | 50 to 100 | < 10 | > 50 | –
12 | CCN1c2ncc(CCOc3ccc(-c4cccc(C(=O)O)c4)cc3)cc2C(=O)N(C)c2cccnc21 [Entry 1012] | – | < 50 | – | – | > 100 | < 10 | 10 to 50 | –
13 | CCN1c2ncc(CCOc3ccc(-c4ccc(C(=O)O)cc4)cc3)cc2C(=O)N(C)c2cccnc21 [Entry 1001] | – | < 50 | – | – | 50 to 100 | < 10 | > 50 | –
14 | CCN1c2ncc(CCOc3ccc(NC(=O)CC4(C(=O)O)CCCC4)cc3C)cc2C(=O)N(C)c2cccnc21 [Entry 4007] | > 100 | < 50 | < 10 | < 10 | – | – | – | –
15 | CCN1c2ncc(CCOc3ccc(-c4cocn4)cc3C)cc2C(=O)N(C)c2cccnc21 [Entry 1099, 11-Ethyl-5,11-dihydro-5-methyl-8-{2-[2-methyl-4-(4-oxazolyl)phenoxy]ethyl}-6H-dipyrido[3,2-b:2′,3′-e][1,4]diazepin-6-one] | < 50 | < 50 | < 10 | < 10 | – | – | – | –
16 | CCN1c2ncc(CCOc3ccc(Nc4cccc(CC(=O)O)c4)cc3C)cc2C(=O)N(C)c2cccnc21 [Entry 3024] | < 50 | < 50 | – | < 10 | – | – | – | < 10
17 | CCN1c2ncc(CCOc3ccc(-c4ccc(CC(=O)O)cc4)cc3CO)cc2C(=O)N(C)c2cccnc21 [Entry 1104] | – | < 50 | – | – | < 50 | < 10 | 10 to 50 | –

Row | Compound | IC50 [1] [nM] | IC50 [2] [nM] | EC50 (HIV-1 wild type; [4]) [nM] | EC50 [3, 5] [nM] | IC50 [1, 6] [nM] | EC50 (HIV-1 wild type; [7]) [nM] | EC50 [3, 8] [nM] | EC50 (HIV-1 wild type; [9]) [nM]
18 | CCN1c2ncc(CCOc3ccc(C(=O)Nc4ccc(C(=O)O)cc4)cc3C)cc2C(=O)N(C)c2cccnc21 [Entry 3001, 4-{{4-[2-(11-Ethyl-6,11-dihydro-5-methyl-6-oxo-5H-dipyrido[3,2-b:2′,3′-e][1,4]diazepin-8-yl)ethoxy]-3-methylbenzoyl}amino}benzoic acid] | < 50 | < 50 | – | 10 to 50 | – | – | – | < 10
19 | CCN1c2ncc(CCOc3ccc(-c4ccc(N)c(C(=O)O)c4)cc3C)cc2C(=O)N(C)c2cccnc21 [Entry 1034, 4-Amino-4′-[2-(11-ethyl-6,11-dihydro-5-methyl-6-oxo-5H-dipyrido[3,2-b:2′,3′-e][1,4]diazepin-8-yl)ethoxy]-3′-methyl-[1,1′-biphenyl]-3-carboxylic acid] | < 50 | < 50 | – | < 10 | – | – | – | < 10
20 | CCN1c2ncc(CCOc3ccc(-c4cccc(CC(=O)O)c4)cc3)cc2C(=O)N(C)c2cccnc21 [Entry 1014] | – | < 50 | – | – | > 100 | < 10 | 10 to 50 | –
21 | CCN1c2ncc(CCOc3ccc(C(=O)Nc4cccc[n+]4[O-])cc3C)cc2C(=O)Nc2c(C)ccnc21 [Entry 3019] | – | < 50 | – | – | 50 to 100 | < 10 | < 10 | –
22 | CCN1c2ncc(CCOc3ccc(C(=O)NNC)cc3C)cc2C(=O)N(C)c2cccnc21 [Entry 4016] | < 50 | < 50 | < 10 | < 10 | – | – | – | –
23 | CCN1c2ncc(CCOc3ccc(C(=O)NC(C)(C)C(=O)O)cc3C)cc2C(=O)N(C)c2cccnc21 [Entry 4012] | 50 to 100 | < 50 | 10 to 50 | > 50 | – | – | – | –
24 | CCN1c2ncc(CCOc3ccc(C(=O)Nc4cccc(CC(=O)O)c4)cc3C)cc2C(=O)N(C)c2cccnc21 [Entry 3010] | < 50 | < 50 | – | 10 to 50 | – | – | – | 10 to 50
25 | CCN1c2ncc(CCOc3ccc(C(=O)NN)cc3C)cc2C(=O)N(C)c2cccnc21 [Entry 4011, 4-[2-(11-Ethyl-6,11-dihydro-5-methyl-6-oxo-5H-dipyrido[3,2-b:2′,3′-e][1,4]diazepin-8-yl)ethoxy]-3-methylbenzoic acid hydrazide] | < 50 | < 50 | < 10 | < 10 | – | – | – | –
26 | CCN1c2ncc(CCOc3ccc(-c4cccc(CC(=O)O)c4)cc3C)cc2C(=O)N(C)c2cccnc21 [Entry 1015] | – | < 50 | – | – | < 50 | < 10 | < 10 | –
27 | CCN1c2ncc(CCOc3ccc(S(=O)(=O)NCC(=O)O)cc3C)cc2C(=O)N(C)c2cccnc21 [Entry 4020] | < 50 | < 50 | > 50 | > 50 | – | – | – | –
28 | CCN1c2ncc(CCOc3ccc(NC(=O)C4CC4C(=O)O)cc3C)cc2C(=O)N(C)c2cccnc21 (stereo not shown) [Entry 4009] | > 100 | < 50 | < 10 | > 50 | – | – | – | –
29 | CCN1c2ncc(CCOc3ccc(C(=O)NC(C)(C)CC(=O)O)cc3C)cc2C(=O)N(C)c2cccnc21 [Entry 4017] | > 100 | < 50 | < 10 | > 50 | – | – | – | –
30 | CCN1c2ncc(CCOc3ccc(C(=O)Nc4cccnc4O)cc3C)cc2C(=O)N(C)c2cccnc21 [Entry 3021] | < 50 | < 50 | < 10 | < 10 | – | – | – | –
31 | CCN1c2ncc(CCOc3ccc(-c4ccc(C(=O)O)cc4)cc3F)cc2C(=O)N(C)c2cccnc21 [Entry 1004] | – | < 50 | – | – | > 100 | < 10 | > 50 | –
32 | CCN1c2ncc(CCOc3ccc(NC(=O)Nc4ccc(C(=O)O)cc4)cc3C)cc2C(=O)N(C)c2cccnc21 [Entry 3031] | < 50 | < 50 | – | > 50 | – | – | – | 10 to 50
33 | CCN1c2ncc(CCOc3ccc(-c4cccc(C(=O)O)c4)cc3C)cc2C(=O)N(C)c2cccnc21 [Entry 1013, 4′-[2-(11-Ethyl-6,11-dihydro-5-methyl-6-oxo-5H-dipyrido[3,2-b:2′,3′-e][1,4]diazepin-8-yl)ethoxy]-3′-methyl-[1,1′-biphenyl]-3-carboxylic acid] | < 50 | < 50 | – | 10 to 50 | – | – | – | < 10
34 | CCN1c2ncc(CCOc3ccc(C(=O)NS(=O)(=O)c4ccccc4)cc3C)cc2C(=O)N(C)c2cccnc21 [Entry 3009] | > 100 | < 50 | – | > 50 | – | – | – | 10 to 50
